This note sets out measurements from PubChem BioAssay (NCI).

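Following 48 hours of exposure in 96-well plates, responses at five concentrations were used to interpolate endpoints linearly. TGI: total growth inhibition.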 Peptide text beside a SMILES is read from it. * marks the point of attachment. X34 = O=C(c1ccc(-c2ccc(Cl)cc2Cl)o1)*

Holding throughout (assay): NCI tumour cell line growth inhibition, 48 h
In experiment [1] the test system is A549 NSCLC.
The subject of experiment [2] is NCI/ADR-RES ovarian.
The subject of experiment [3] is HL-60(TB) leukemia.
Experiment [4] relates to MCF7 breast.
Experiment [5] deals with SN12C renal.
The test system of experiment [6] is HOP-92 NSCLC.
Experiment [7] concerns KM12 colon.
Experiment [8] has as its system RPMI-8226 leukemia.
For experiment [9], the system named is NCI-H226 lung.
Experiment [10] concerns SNB-75 CNS.
The test system of experiment [11] is HCT-116 colon.
For experiment [12], the system named is HOP-62 NSCLC.
Experiment [13] has as its system HCC-2998 colon.
Experiment [14] concerns U251 CNS.
The test system of experiment [15] is PC-3 prostate.
The subject of experiment [16] is SW-620 colon.
In experiment [17] the test system is LOX IMVI melanoma.
For experiment [18], the system named is OVCAR-4 ovarian.
In experiment [19] the test system is NCI-H460 lung.
The subject of experiment [20] is SR leukemia.

On to `COc1ccc(C(=O)CCN(C)C)c2ccccc12`, for which the TGI was over 100 µM in [1]; over 100 µM in [2]; 37 µM in [3]; 33.2 µM in experiment [4]; 49.1 µM in experiment [5]; 41.9 µM in experiment [6]. Further, the TGI was over 63.7 µM in experiment [7]; 4.44 µM in experiment [8]; over 100 µM in [9]; 61.5 µM in experiment [10]; 52.5 µM in [11]; over 78.3 µM in experiment [12]. In addition, the TGI in [13] is 36 µM; in experiment [14], 35.1 µM; in [15] it was 34 µM; in experiment [16] it was 49.3 µM; in [17] it was 42.8 µM; in experiment [18] it was 65.1 µM. The molecule also yielded a TGI in experiment [19] of over 100 µM.

As for `COc1ccc(C(=O)c2nc3ccccc3nc2N2CCN(c3ccccc3)CC2)cc1OC`, the TGI in experiment [1], in [2], in [3], in [4], in experiment [20] and in experiment [6] was over 100 µM throughout. Also, the TGI in experiment [7], in experiment [8], in experiment [10], in experiment [11], in experiment [12] and in [13] was over 100 µM throughout. In addition, the TGI in [14], in experiment [15], in experiment [16], in experiment [17], in experiment [18] and in experiment [19] was over 100 µM throughout.

Consider `COc1cc(NC(C)=O)ccc1C(=O)N/N=C/c1ccco1`, for which the TGI in [1], in [2], in [3], in [4], in [5] and in [20] was over 100 µM in each case. Further, the TGI in [6], in experiment [7], in experiment [8], in experiment [10], in [11] and in experiment [12] was over 100 µM in each case. In addition, the TGI in experiment [15], in experiment [16], in experiment [17] and in experiment [18] was over 100 µM in each case.

Consider `CCOC(=O)/C(=C\c1cn(C(C)=O)c2ccccc12)P(C)(=O)OCC` (centres undefined), for which the TGI in [1], in [2], in experiment [3], in experiment [4], in experiment [5] and in experiment [20] was over 100 µM throughout. In addition, the TGI is 66.8 µM in [6]; over 100 µM in experiment [7]; over 100 µM in experiment [8]; 36.5 µM in experiment [10]; over 100 µM in experiment [11]; over 100 µM in experiment [12]. The TGI in [13] was 94.3 µM; in experiment [14], over 100 µM; in experiment [15], over 100 µM; in [16] it was over 100 µM.

With `CC(C)=NOC(=O)OC[C@H]1O[C@@H](n2cnc3c(N)ncnc32)C(O)C1O` (some centres undefined), the TGI in [1], in experiment [2], in experiment [3], in [4], in experiment [5] and in experiment [20] was over 100 µM in each case. Also, the TGI in experiment [7], in experiment [8], in experiment [9], in experiment [10], in [12] and in experiment [13] was over 100 µM each time. Moreover, the TGI in experiment [14], in experiment [15], in [16], in experiment [17], in experiment [18] and in [19] was over 100 µM in each case.

Turning to `COC(=O)CCC(=O)c1ccc2c(c1)CC1(C2)Cc2ccc(C(=O)CCC(=O)OC)cc2C1`, the TGI was over 100 µM in experiment [1]; over 100 µM in experiment [2]; over 100 µM in experiment [3]; over 100 µM in experiment [4]; over 100 µM in experiment [5]; 88.5 µM in experiment [20]. The TGI was over 100 µM in experiment [6]; over 100 µM in experiment [7]; over 100 µM in experiment [8]; 0.172 µM in experiment [10]; over 100 µM in experiment [11]; over 100 µM in experiment [12]. In addition, the TGI in experiment [13], in experiment [14], in experiment [15], in experiment [17] and in [18] was over 100 µM each time.

As for `COC(=O)[C@@H]1C[C@]2(Br)c3ccccc3N(S(=O)(=O)c3ccccc3)[C@@H]2N1C(=O)OC`, the TGI in [1], in experiment [2], in experiment [3], in [4], in [5] and in [20] was over 100 µM each time. Also, the TGI in experiment [6], in experiment [7], in [8], in [9], in experiment [10] and in [11] was over 100 µM throughout. Moreover, the TGI in experiment [12], in experiment [13], in [14], in experiment [15], in experiment [16] and in experiment [18] was over 100 µM in each case. In experiment [19], this molecule yielded a TGI of over 100 µM.

`COn1oc(=O)c2ccccc21`: the TGI in experiment [1], in experiment [2], in [3], in experiment [4], in experiment [5] and in experiment [6] was over 100 µM throughout. Also, the TGI in experiment [7], in [8], in experiment [9], in experiment [10], in [11] and in experiment [12] was over 100 µM in each case. Further, the TGI in experiment [13], in [14], in [15], in [16], in experiment [17] and in [18] was over 100 µM in each case. In experiment [19], this molecule returned a TGI of over 100 µM.

With `Cc1cn(C2CC(N=[N+]=[N-])C(CO)O2)c(=O)n(CCCCBr)c1=O` (centres undefined), the TGI in experiment [1], in [2], in experiment [4], in [5], in experiment [6] and in [7] was over 100 µM throughout. The TGI in experiment [8], in [9], in [10], in experiment [11], in [12] and in [13] was over 100 µM in each case. Also, the TGI in experiment [14] is 44.6 µM; in [15] it was over 100 µM; in [16] it was over 100 µM; in experiment [17], over 100 µM; in experiment [18] it was over 100 µM; in experiment [19], over 100 µM.

For `O=C1NC(=O)C(C(c2ccc([N+](=O)[O-])cc2)C2C(=O)NC(=O)NC2=O)C(=O)N1`, the TGI in [1], in experiment [2], in experiment [3], in experiment [4], in experiment [5] and in [6] was over 100 µM throughout. Further, the TGI in [7], in experiment [8], in experiment [9], in experiment [11], in [12] and in experiment [14] was over 100 µM each time. The TGI in experiment [15], in experiment [16], in [17], in experiment [18] and in experiment [19] was over 100 µM in each case.

On to `COc1ccccc1/C=N/Nc1nnc2c3ccccc3c3ncccc3c2n1`, for which the TGI in experiment [1], in experiment [2], in [3], in experiment [4], in experiment [5] and in experiment [20] was over 100 µM throughout. The TGI in experiment [6] was 52.8 µM; in experiment [7] it was over 100 µM; in experiment [8], over 100 µM; in experiment [10], 49.3 µM; in [11], over 100 µM; in [12] it was 49.2 µM. Besides, the TGI in experiment [13] was over 100 µM; in experiment [14], over 100 µM; in experiment [15], over 100 µM; in [16], over 100 µM; in [17] it was over 100 µM; in [18], 60.1 µM. This molecule had a TGI in experiment [19] of over 100 µM.

Regarding `COC(=O)C(CC(C)C)NC(=O)C(Cc1ccccc1)NC(=O)C1CCCN1C(=O)C(CO)NC(=O)c1ccc(-c2ccc(Cl)cc2Cl)o1` (centres undefined) (X34-SPFL-OMe; configuration not given here), the TGI in experiment [1] was 91.2 µM; in experiment [2], 92.8 µM; in experiment [3], 69.6 µM; in [4], over 100 µM; in [5], 89.9 µM; in experiment [6] it was 63.9 µM. In addition, the TGI in experiment [7] is over 100 µM; in experiment [8], 44.2 µM; in experiment [9], 44.9 µM; in experiment [10], 88.8 µM; in [11], 92.1 µM; in [13], 27.4 µM. In addition, the TGI in experiment [14] was 55.9 µM; in [15], over 100 µM; in experiment [16], over 100 µM; in experiment [17], 47.9 µM; in experiment [18], over 100 µM; in [19], 38.9 µM.
